Measurements reported in patent US7326729B2, “CXCR1 and CXCR2 chemokine antagonists” (Schering Corporation, priority 2004, dated 2008).
Values joined by “and” are separate entries in the source; they are usually repeats but may differ in a detail not shown here. Identical values can stand only once.

Columns and labels:
hCXCR2 = target: T1, hCXCR2 (Homo sapiens, UniProt P25025); assay: CXCR2 SPA Assay ([125I]-IL-8 receptor binding); conditions: hCXCR2-CHO overexpressing membranes, [125I]-IL-8 0.1 nM
T1 construct: purchased Biosignal; host or cells: CHO cells (membranes)
T1 sequence (P25025 1-360): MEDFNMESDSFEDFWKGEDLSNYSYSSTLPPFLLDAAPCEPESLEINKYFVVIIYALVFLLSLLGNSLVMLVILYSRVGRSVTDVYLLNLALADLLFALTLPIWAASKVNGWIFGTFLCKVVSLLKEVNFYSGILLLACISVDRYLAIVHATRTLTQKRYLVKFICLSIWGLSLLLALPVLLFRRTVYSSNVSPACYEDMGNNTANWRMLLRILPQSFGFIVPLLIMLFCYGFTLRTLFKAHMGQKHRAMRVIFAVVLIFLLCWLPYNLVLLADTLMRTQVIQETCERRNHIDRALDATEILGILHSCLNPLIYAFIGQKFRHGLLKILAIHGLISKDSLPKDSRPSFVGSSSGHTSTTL
Procedure: For each well of a 96 well plate, a reaction mixture of 2.5 μg hCXCR2-CHO overexpressing membranes (Biosignal) and 200 μg/well WGA-SPA beads (Amersham) in 160 μl was prepared in CXCR2 assay buffer (25 mM HEPES, pH 7.4, 2 mM CaCl2, 1 mM MgCl2). A 1 nM stock of ligand, [125I]-IL-8 (NEN), was prepared in the CXCR2 assay buffer. 10× stock solutions of test compounds were prepared in DMSO (Sigma). The above solutions were added to a 96-well assay plate (PerkinElmer or Corning) as follows: 20 μl test compound or DMSO, 160 μl of reaction mixture, 20 μl of ligand stock (Final [Ligand]=0.1 nM). The assay plates were shaken for 5 minutes on a plate shaker, then incubated for 12 hours before cpm/well were determined in Microbeta Trilux counter (PerkinElmer).

hCXCR1 = target: T2, hCXCR1 (Homo sapiens, UniProt P25024); assay: CXCR1 SPA Assay ([125I]-IL-8 receptor binding); conditions: hCXCR1-CHO overexpressing membranes, [125I]-IL-8 0.05 nM
T2 construct: purchased Biosignal; host or cells: CHO cells (membranes)
T2 sequence (P25024 1-350): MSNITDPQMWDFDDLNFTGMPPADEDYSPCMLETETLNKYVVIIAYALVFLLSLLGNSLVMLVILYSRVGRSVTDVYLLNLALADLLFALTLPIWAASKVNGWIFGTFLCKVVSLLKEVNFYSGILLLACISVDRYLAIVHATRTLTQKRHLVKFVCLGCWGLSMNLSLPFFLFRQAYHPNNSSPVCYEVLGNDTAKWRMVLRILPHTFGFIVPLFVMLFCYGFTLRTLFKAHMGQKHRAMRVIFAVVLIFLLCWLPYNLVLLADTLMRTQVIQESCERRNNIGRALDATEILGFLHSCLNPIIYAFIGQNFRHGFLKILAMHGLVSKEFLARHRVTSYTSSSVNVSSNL
Procedure: For each well of a 96 well plate, a reaction mixture of 2.2 μg hCXCR1-CHO overexpressing membranes (Biosignal) and 100 μg/well WGA-SPA beads (Amersham) in 160 μl was prepared in CXCR1 assay buffer (25 mM HEPES, pH 7.8, 2 mM CaCl2, 1 mM MgCl2, 125 mM NaCl, 0.1% BSA) (Sigma). A 0.5 nM stock of ligand, [125I]-IL-8 (NEN) was prepared in the CXCR1 assay buffer. 10× stock solutions of test compounds were prepared in 10% DMSO (Sigma). The above solutions were added to a 96-well assay plate (PerkinElmer) as follows: 20 μl test compound or DMSO, 160 μl of reaction mixture, 20 μl of ligand stock (Final [Ligand]=0.05 nM). The assay plates were shaken for 5 minutes on plate shaker, then incubated for 12 hours before cpm/well were determined in Microbeta Trilux counter (PerkinElmer). % Inhibition of Total binding-NSB (250 nM IL-8) was determined for IC50 values.

O=C(Nc1csc(S(=O)(=O)N2CCC[C@@H]2CO)c1O)Nc1cccc(Cl)c1Cl [Example 21.6]
Ki (hCXCR2): 5 to 91 nM and 5 to 10 nM | Ki (hCXCR1): 652 to 1920 nM

CCCN(C)S(=O)(=O)c1scc(NC(=O)Nc2cccc(Cl)c2Cl)c1O [Example 21.1]
Ki (hCXCR2): 5 to 91 nM and 5 to 10 nM

CCNS(=O)(=O)c1scc(NC(=O)Nc2ccccc2Br)c1O [Example 20.10]
Ki (hCXCR2): 5 to 91 nM

CC(C)NS(=O)(=O)c1scc(NC(=O)Nc2cccc(Cl)c2Cl)c1O [Example 20.11]
Ki (hCXCR1): 652 to 1920 nM

CN(C1CC1)S(=O)(=O)c1scc(NC(=O)Nc2cccc(Cl)c2Cl)c1O [Example 20.16]
Ki (hCXCR2): 5 to 91 nM and 5 to 10 nM and 6 nM | Ki (hCXCR1): 652 to 1920 nM

CN(C)S(=O)(=O)c1scc(NC(=O)Nc2ccccc2Br)c1O [Example 20.1]
Ki (hCXCR2): 5 to 91 nM

CC(C)(C)NS(=O)(=O)c1scc(NC(=O)Nc2cccc(Cl)c2Cl)c1O [Example 20.13]
Ki (hCXCR1): 652 to 1920 nM

O=C(Nc1ccccc1Br)Nc1csc(S(=O)(=O)N2CCCC2)c1O [Example 20.19]
Ki (hCXCR2): 5 to 91 nM | Ki (hCXCR1): 652 to 1920 nM

CCN(C(C)(C)C)S(=O)(=O)c1scc(NC(=O)Nc2cccc(Cl)c2Cl)c1O [Example 20.15]
Ki (hCXCR2): 5 to 91 nM | Ki (hCXCR1): 652 to 1920 nM

CCN(C)S(=O)(=O)c1scc(NC(=O)Nc2cccc(Cl)c2Cl)c1O [Example 21]
Ki (hCXCR2): 5 to 91 nM

CCN(CC)S(=O)(=O)c1scc(NC(=O)Nc2cccc(Cl)c2Cl)c1O [Example 20.3]
Ki (hCXCR2): 5 to 91 nM | Ki (hCXCR1): 652 to 1920 nM

CC(C)N(C)S(=O)(=O)c1scc(NC(=O)Nc2cccc(Cl)c2Cl)c1O [Example 21.4]
Ki (hCXCR2): 5 to 91 nM and 5 to 10 nM

CN(C(C)(C)C)S(=O)(=O)c1scc(NC(=O)Nc2cccc(Cl)c2Cl)c1O [Example 20.14]
Ki (hCXCR1): 652 to 1920 nM and 652 nM

CNS(=O)(=O)c1scc(NC(=O)Nc2cccc(Cl)c2Cl)c1O [Example 21.14]
Ki (hCXCR2): 5 to 91 nM and 5 to 10 nM | Ki (hCXCR1): 652 to 1920 nM

O=C(Nc1csc(S(=O)(=O)NC2(CO)CCCC2)c1O)Nc1cccc(Cl)c1Cl [Example 21.8]
Ki (hCXCR2): 5 to 91 nM

CCN(C)S(=O)(=O)c1scc(NC(=S)Nc2cccc(Cl)c2Cl)c1O [Example 22]
Ki (hCXCR2): 5 to 91 nM | melting point: 112 to 115 °C

CC(C)CN(C)S(=O)(=O)c1scc(NC(=O)Nc2cccc(Cl)c2Cl)c1O [Example 21.3]
Ki (hCXCR2): 5 to 91 nM

CCCCN(C)S(=O)(=O)c1scc(NC(=O)Nc2cccc(Cl)c2Cl)c1O [Example 21.2]
Ki (hCXCR2): 5 to 91 nM

CN(C1CCC1)S(=O)(=O)c1scc(NC(=O)Nc2cccc(Cl)c2Cl)c1O [Example 20.17]
Ki (hCXCR2): 5 to 91 nM

CCNS(=O)(=O)c1scc(NC(=O)Nc2cccc(Cl)c2Cl)c1O [Example 20.7]
Ki (hCXCR2): 5 to 91 nM

NS(=O)(=O)c1scc(NC(=O)Nc2cccc(Cl)c2Cl)c1O [Example 20.21]
Ki (hCXCR2): 5 to 91 nM

O=C(Nc1csc(S(=O)(=O)N2CCCC2)c1O)Nc1cccc(Cl)c1Cl [Example 20.18]
Ki (hCXCR2): 5 to 91 nM | Ki (hCXCR1): 652 to 1920 nM

O=C(Nc1csc(S(=O)(=O)N2CCC[C@H]2CO)c1O)Nc1cccc(Cl)c1Cl [Example 21.7]
Ki (hCXCR2): 5 to 91 nM and 5 to 10 nM | Ki (hCXCR1): 652 to 1920 nM

O=C(Nc1csc(S(=O)(=O)NC2CC2)c1O)Nc1cccc(Cl)c1Cl [Example 21.10]
Ki (hCXCR2): 5 to 91 nM | Ki (hCXCR1): 652 to 1920 nM

CC(C)[C@@H](CO)NS(=O)(=O)c1scc(NC(=O)Nc2cccc(Cl)c2Cl)c1O [Example 21.12]
Ki (hCXCR2): 5 to 91 nM

CC(C)NS(=O)(=O)c1scc(NC(=O)Nc2ccccc2Br)c1O [Example 20.12]
Ki (hCXCR2): 5 to 91 nM

CN(C)S(=O)(=O)c1scc(NC(=O)Nc2cccc(Cl)c2Cl)c1O [Example 20]
Ki (hCXCR2): 5 to 91 nM

CCN1CCN(S(=O)(=O)c2scc(NC(=O)Nc3cccc(Cl)c3Cl)c2O)CC1 [Example 21.5]
Ki (hCXCR2): 5 to 91 nM | Ki (hCXCR1): 652 to 1920 nM
